In US20010039286A1, “2-aryl indole derivatives and their use as therapeutic agents” (priority 2000, published 2001) one finds melting point data, which are given here for one molecule.

In the case of `Cl.OC1(Cc2ccccc2)CCN(CCCc2c(-c3ccc(Cl)cc3)[nH]c3ccc(Cl)cc23)CC1`, the melting point (usually the temperature of the solid-liquid transition) fell in the range of 147 to 150 °C.
